Drawing on US7265152B2 (ViroPharma Incorporated, priority 2002, dated 2007), this text covers EC50 and IC50 for 21 molecules.

For test [1], the system named is HCV replicon (BB7 sequence) in Huh-7-Clone A cells. As to the kind of experiment: HCV replicon assay: ELISA of NS5A protein in replicon-containing cells (Inhibition of Viral RNA Replication). In kind it is cell-based. Particulars: Hepatitis C virus, read-out: Replicon. An outline of the steps:
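Huh-7-Clone A cells carrying subgenomic BB7 HCV replicon (G418-selectable) incubated 72 h with compound. NS5A protein quantified by cell ELISA: glutaraldehyde fixation, anti-NS5A monoclonal plus HRP secondary, TMB read at OD 650 nm. EC50 derived from 8-point serial dilution dose curve.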

Test [2] deals with T1, HCV NS5B (Hepatitis C virus genotype 1b, UniProt Q9WMX2).
T1 construct: fusion protein, of which the carboxyl terminal 21 amino acids were removed to enhance its solubility; His tag (GSHHHHHH); made in house; host or cells: E. coli
The test is described as follows: Inhibition of viral RNA-dependent RNA polymerase (RdRp), in vitro biochemical assay. More on the design: species or system HCV genotype 1b virus (BB7). The following applies: read-out: HCV pol-BB7 IC50. The essentials: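 Purified recombinant NS5B from a genotype 1b consensus (BB7), His-tagged, E. coli-expressed, with the C-terminal 21 residues deleted. Inhibition of RdRp activity in vitro was measured, and IC50 is the concentration giving 50% inhibition.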

Setting [3] is: HCV replicon assay, ranges of EC50.
Setting [4] is: HCV NS5B RdRp, BB7, activity class.
The mark [5] stands for this setting: ranges of EC50 in HCV replicon assay.
Setting [6] is: HCV NS5B RdRp, BB7, class symbols A-D.
[7] abbreviates: Huh-7-Clone A, NS5A ELISA, 72-hour incubation, ranges of EC50.
The mark [8] stands for this setting: purified His-tagged NS5B (BB7), carboxyl terminal 21 amino acids removed.
Where [9] appears, read: HCV NS5B RdRp, BB7, reported as range class.
Where [10] appears, read: HCV replicon assay, ranges of 50% effective concentration (EC50).
Setting [11] is: HCV NS5B polymerase, BB7 (genotype 1b), values given as range classes A-D.

Where two headings read alike, the source gives them in different places.

Consider `COc1cc2c(C(=O)NC(C)C)c(-c3ccc(F)cc3)oc2cc1-c1c(C)noc1C` [Example 379, 6-(3,5-Dimethyl-isoxazol-4-yl)-2-(4-fluoro-phenyl)-5-methoxy-benzofuran-3-carboxylic acid isopropylamide], for which the EC50 in test [1] (setting [3]) was more than 30000 nM. Also, in test [2] (setting [4]), the IC50 was 500 to 5000 nM.
For `CNC(=O)c1c(-c2ccc(F)cc2)oc2cc(N3CCC(S(C)(=O)=O)C3)c(OC(C)C)cc12` (stereo not drawn) [Example 108, 2-(4-Fluoro-phenyl)-5-isopropoxy-6-(3-methanesulfonyl-pyrrolidin-1-yl)-benzofuran-3-carboxylic acid methylamide], the EC50 in test [1] (setting [5]) was less than 1000 nM. Besides, in test [2] (HCV NS5B RdRp, BB7 genotype 1b), the IC50 is not above 500 nM.
Turning to `CNC(=O)c1c(-c2ccc(F)cc2)oc2cc(-c3cc(COC)on3)c(OC)cc12` [Example 313, 2-(4-Fluoro-phenyl)-5-methoxy-6-(5-methoxymethyl-isoxazol-3-yl)-benzofuran-3-carboxylic acid methylamide], the EC50 in test [1] (setting [3]) is less than 1000 nM. In addition, in test [2] (setting [6]), the IC50 is not above 500 nM.
With `CNC(=O)c1c(-c2ccc(F)cc2)oc2cc(N(C)S(C)(=O)=O)c(OCCN3CCOCC3)cc12` [Example 52, 2-(4-Fluoro-phenyl)-6-(methanesulfonyl-methyl-amino)-5-(2-morpholin-4-yl-ethoxy)-benzofuran-3-carboxylic acid methylamide], the EC50 in test [1] (setting [7]) was less than 1000 nM. The IC50 in test [2] (setting [8]) is not above 500 nM.
For the molecule `CNC(=O)c1c(-c2ccc(F)cc2)oc2cc(Nc3c(C)noc3C)c(OC(C)C)cc12` [Example 235, 6-(3,5-Dimethyl-isoxazol-4-ylamino)-2-(4-fluoro-phenyl)-5-isopropoxy-benzofuran-3-carboxylic acid methylamide], in test [1] (HCV replicon, range of EC50), the EC50 is more than 30000 nM. The IC50 in test [2] (setting [9]) is 5000 to 30000 nM.
As for `CNC(=O)c1c(-c2ccc(F)cc2)oc2cc(N(Cc3ccc(C(=O)O)cc3)S(C)(=O)=O)c(OC(C)C)cc12` [Example 272, 4-({[2-(4-Fluoro-phenyl)-5-isopropoxy-3-methylcarbamoyl-benzofuran-6-yl]-methanesulfonyl-amino}-methyl)-benzoic acid], the EC50 in test [1] (setting [3]) is not above 1000 nM. The IC50 in test [2] (setting [6]) was not above 500 nM.
On to `CNC(=O)c1c(-c2ccc(F)cc2)oc2cc(-c3nc(C)n[nH]3)c(OC)cc12` [Example 383, 2-(4-Fluoro-phenyl)-5-methoxy-6-(5-methyl-2H-[1,2,4]triazol-3-yl)-benzofuran-3-carboxylic acid methylamide], for which the EC50 in test [1] (setting [10]) was less than 10000 nM. For the same molecule, the IC50 in test [2] (setting [11]) fell in the range of 500 to 5000 nM.
`CNC(=O)c1c(-c2ccc(F)cc2)oc2cc(S(=O)(=O)NC3CC3)c(OC(C)C)cc12` [Example 155, 6-Cyclopropylsulfamoyl-2-(4-fluoro-phenyl)-5-isopropoxy-benzofuran-3-carboxylic acid methylamide]: the EC50 in test [1] (setting [5]) was less than 10000 nM. Besides, the 50% inhibitory concentration (IC50) in test [2] (HCV NS5B RdRp, BB7 genotype 1b) was not above 500 nM.
`CNC(=O)c1c(-c2ccc(F)cc2)oc2cc(N(C)S(C)(=O)=O)c(OCc3nc(C(=O)O)cs3)cc12` [Example 393, 2-[2-(4-Fluoro-phenyl)-6-(methanesulfonyl-methyl-amino)-3-methylcarbamoyl-benzofuran-5-yloxymethyl]-thiazole-4-carboxylic acid]: the EC50 in test [1] (setting [10]) was more than 30000 nM. Also, the IC50 in test [2] (setting [11]) was not above 500 nM.
In the case of `CNC(=O)c1c(-c2ccc(F)cc2)oc2cc(N(CC3CC3)S(C)(=O)=O)c(OC(C)C)cc12` [Example 137, 6-(Cyclopropylmethyl-methanesulfonyl-amino)-2-(4-fluoro-phenyl)-5-isopropoxy-benzofuran-3-carboxylic acid methylamide], the EC50 in test [1] (setting [5]) was less than 1000 nM. Also, in test [2] (HCV NS5B RdRp, BB7 genotype 1b), the IC50 was not above 500 nM.
As to `CNC(=O)c1c(-c2ccc(F)cc2)oc2cc(N(CC(F)(F)F)S(C)(=O)=O)c(OC)cc12` [Example 308, 2-(4-Fluoro-phenyl)-6-[methanesulfonyl-(2,2,2-trifluoro-ethyl)-amino]-5-methoxy-benzofuran-3-carboxylic acid methylamide], the EC50 in test [1] (setting [3]) was less than 1000 nM. The half-maximal inhibitory concentration (IC50) in test [2] (setting [6]) was not above 500 nM.
`CNC(=O)c1c(-c2ccc(F)cc2)oc2cc(N3CCCC(O)C3)c(OC(C)C)cc12` (stereo not drawn) [Example 141, 2-(4-Fluoro-phenyl)-6-(3-hydroxy-piperidin-1-yl)-5-isopropoxy-benzofuran-3-carboxylic acid methylamide]: the EC50 in test [1] (setting [5]) was less than 10000 nM. In test [2] (HCV NS5B RdRp, BB7 genotype 1b), the 50% inhibitory concentration (IC50) is 500 to 5000 nM.
Regarding `CCN(c1cc2oc(-c3ccc(F)cc3)c(C(=O)NC)c2cc1F)S(C)(=O)=O` [Example 333, 6-(Ethyl-methanesulfonyl-amino)-5-fluoro-2-(4-fluoro-phenyl)-benzofuran-3-carboxylic acid methylamide], in test [1] (setting [3]), the EC50 was less than 10000 nM. Moreover, the IC50 in test [2] (setting [4]) was not above 500 nM.
As to `CNC(=O)c1c(-c2ccc(F)cc2)oc2cc(NCCN3CCOCC3)c(OC(C)C)cc12` [Example 100, 2-(4-Fluoro-phenyl)-5-isopropoxy-6-(2-morpholin-4-yl-ethylamino)-benzofuran-3-carboxylic acid methylamide], the EC50 in test [1] (setting [5]) was less than 30000 nM. Further, the IC50 in test [2] (HCV NS5B RdRp, BB7 genotype 1b) was 500 to 5000 nM.
In the case of `CNC(=O)c1c(-c2ccc(F)cc2)oc2cc(N3CCOCC3)c(OCc3nn(C)cc3Cl)cc12` [Example 228, 5-(4-Chloro-1-methyl-1H-pyrazol-3-ylmethoxy)-2-(4-fluoro-phenyl)-6-morpholin-4-yl-benzofuran-3-carboxylic acid methylamide], the EC50 in test [1] (HCV replicon, range of EC50) was less than 1000 nM. For the same molecule, the IC50 in test [2] (setting [9]) was not above 500 nM.
With `CNC(=O)c1c(-c2ccc(F)cc2)oc2cc(N)c(OC)cc12` [Example 17, 6-Amino-2-(4-fluoro-phenyl)-5-methoxy-benzofuran-3-carboxylic acid methylamide], the EC50 in test [1] (setting [7]) is less than 10000 nM. Besides, the IC50 in test [2] (setting [8]) fell in the range of 500 to 5000 nM.
For the molecule `CNC(=O)c1c(-c2ccc(F)cc2)oc2cc(CO)c(OC(C)C)cc12` [Example 224, 2-(4-Fluoro-phenyl)-6-hydroxymethyl-5-isopropoxy-benzofuran-3-carboxylic acid methylamide], the EC50 in test [1] (HCV replicon, range of EC50) is less than 10000 nM. Besides, the IC50 in test [2] (setting [9]) was not above 500 nM.
In the case of `CNC(=O)c1c(-c2ccc(F)cc2)oc2cc(C(C)(C)N)c(OC(C)C)cc12` [Example 376, 6-(1-Amino-1-methyl-ethyl)-2-(4-fluoro-phenyl)-5-isopropoxy-benzofuran-3-carboxylic acid methylamide], the EC50 in test [1] (setting [3]) is less than 1000 nM. The half-inhibitory concentration (IC50) in test [2] (setting [4]) was not above 500 nM.
Take `CNC(=O)c1c(-c2ccc(F)cc2)oc2cc(OCc3ccccc3)c(OC)cc12` [Example 181, 6-Benzyloxy-2-(4-fluoro-phenyl)-5-methoxy-benzofuran-3-carboxylic acid methylamide]: the EC50 in test [1] (HCV replicon, range of EC50) is less than 10000 nM. For the same molecule, the IC50 in test [2] (setting [9]) is not above 500 nM.
In the case of `CNC(=O)c1c(-c2ccccc2)oc2ccc(OCC(F)(F)F)cc12` [Example 11, 2-Phenyl-5-(2,2,2-trifluoro-ethoxy)-benzofuran-3-carboxylic acid methylamide], the EC50 in test [1] (setting [7]) is less than 30000 nM. In test [2] (setting [8]), the IC50 was more than 30000 nM.
`CNC(=O)c1c(-c2ccc(F)cc2)oc2cc(-c3c(C)noc3C)c(OC(C)C)cc12` [Example 159, 6-(3,5-Dimethyl-isoxazol-4-yl)-2-(4-fluoro-phenyl)-5-isopropoxy-benzofuran-3-carboxylic acid methylamide]: the EC50 in test [1] (setting [5]) was less than 1000 nM. Moreover, the IC50 in test [2] (HCV NS5B RdRp, BB7 genotype 1b) is not above 500 nM.
